Reference: patent US20020013349A1, “Methods for treating or preventing pain and anxiety” (priority 1999, published 2002)

Tested on: rats
Type: in vivo, rat
Conditions: positive control; versus mean on baseline days
Description: The standard test in rat to measure anxiolytic effect (Geller conflict procedure) was designed by Geller and Seifter and modified by Pollard and Howard (Geller & Seifter, Psychophamracologia 1:482-492 (1960: Pollard & Howard, Psychopharmacology 62:117-121 (1979)). The anxiety-reducing effect of a KCNQ2/3 channel opener was measured using the Geller conflict procedure in rats. Rats are trained to press a lever to receive food pellets during daily 1 hour sessions. The sessions are divided into punished and unpunished phases. During the four, three-minute punished periods, a light signals that each lever press will produce both a pellet and a foot shock (punishment), which reduces lever pressing. The number of punished lever presses on test days (when test compound is administered) is compared to the mean on baseline days. […]

CNC1=Nc2ccc(Cl)cc2C(c2ccccc2)=[N+]([O-])C1 [chlordiazepoxide]
increase in punished lever pressing: > 50%
